{
  "source": "patent US9994584B2",
  "about": "“Process of synthesizing 3-(4-methylpiperazine-1-carbonyl)-7-oxabicyclo[2.2.1] heptane-2-carboxylic acid” (LIXTE BIOTECHNOLOGY, INC., priority 2014, dated 2018)",
  "key": {"[1]": {"conditions": "in vivo; with temozolomide, doxorubicin, docetaxel; cited from earlier work"}, "PP2A": {"tested_on": "PP2A", "conditions": "used alone (Lu et al. 2009a); cited from earlier work"}, "[2]": {"assay": "Solubility in water (water/2-propanol recrystallization)", "assay_type": "physicochemical", "conditions": "crude solids, ambient temperature", "procedure": "The crude solids (0.5 g) were dissolved in water (1 mL) and 2-propanol (5 mL) was charged. The resulting slurry was stirred at room temperature for 1 hour, and then isolated by filtration. The solids were washed with 2-propanol (to cover the solids) and air dried to afford 0.1 g (20% recovery yield)."}, "[3]": {"assay": "Solubility in toluene (hot toluene trituration)", "assay_type": "physicochemical", "conditions": "crude solids digested in hot toluene for 1 hour", "procedure": "The crude solids (1 g) were digested in hot toluene (15 mL) for 1 hour. The slurry was cooled to room temperature and the solids were isolated by filtration. The solids were dried at 80° C., under vacuum, to afford 0.86 g (86%). […] Based on this observation, in the following experiment toluene was further tried as an anti-solvent."}},
  "data": [
    {"smiles": "CN1CCN(C(=O)C2C(C(=O)O)[C@H]3CC[C@@H]2O3)CC1", "note": "(stereo in doubt) [LB100, 3-(4-methylpiperazine-1-carbonyl)-7-oxabicyclo[2.2.1] heptane-2-carboxylic acid]", "values": [
      {"measurement": "potentiation of anti-tumor activity of standard cytotoxic anti-cancer drugs", "setting": "[1]", "value": "significantly potentiates in vivo"},
      {"measurement": "toxicity in combination with cytotoxic anti-cancer drugs", "setting": "[1]", "value": "without observable increase in toxicity"},
      {"measurement": "anti-cancer activity", "setting": "PP2A", "value": "has anti-cancer activity when used alone"},
      {"measurement": "solubility in water", "setting": "[2]", "value": "high solubility in water"},
      {"measurement": "solubility in toluene", "setting": "[3]", "value": "low solubility of the material in toluene"}
    ]}
  ]
}
